Reference: US6770637B2, “Substituted 4-phenyl-pyridine compounds with activity as antagonists of neurokinin 1 receptors” (Hoffmann-La Roche Inc., priority 2000, dated 2004)

These molecules were tested against T1, human NK1 receptor (Homo sapiens, UniProt P25103) (assay: NK1 receptor binding assay, displacement of [3H]substance P). Details: affinity to the NK-1 receptor; human NK1 receptors in CHO cells (Semliki virus expression system); [3H]substance P 0.6 nM.
T1 construct: expressed in transfected cells; host or cells: CHO cells infected with the Semliki virus expression system; membrane suspension
Protocol: The affinity of tests compounds for the NK1 receptor was evaluated at human NK 1 receptors in CHO cells infected with the human NK1 receptor (using the Semliki virus expression system) and radiolabelled with [^3H]substance P (final concentration 0.6 nM.) Binding assays were performed in HEPES buffer (50 mM, pH 7.4) containing BSA (0.04%) leupeptin (8 μg/ml), MnCl2 (3 mM) and phosphoramidon (2 μM). Binding assays consisted of 250 μl of membrane suspension (1.25×10^5 cells/assay tube), […] of bugger of displacing agent and 125 μl of [^3H]substance P. Displacement curves were determined with at least seven concentrations of the compound. The assay tubes were incubated for 60 min at room temperature after which time the tube contents were rapidly filtered under vacuum through GF/C filters presoaked for 60 min with PEI (0.3%) with 2×2 ml washes of HEPES buffer (50 mM, pH 7.4). The radioactivity retained on the filters was measured by scintillation counting. All assays were performed in triplicate in at least 2 separate experiments.

T1 sequence (P25103 whole entry): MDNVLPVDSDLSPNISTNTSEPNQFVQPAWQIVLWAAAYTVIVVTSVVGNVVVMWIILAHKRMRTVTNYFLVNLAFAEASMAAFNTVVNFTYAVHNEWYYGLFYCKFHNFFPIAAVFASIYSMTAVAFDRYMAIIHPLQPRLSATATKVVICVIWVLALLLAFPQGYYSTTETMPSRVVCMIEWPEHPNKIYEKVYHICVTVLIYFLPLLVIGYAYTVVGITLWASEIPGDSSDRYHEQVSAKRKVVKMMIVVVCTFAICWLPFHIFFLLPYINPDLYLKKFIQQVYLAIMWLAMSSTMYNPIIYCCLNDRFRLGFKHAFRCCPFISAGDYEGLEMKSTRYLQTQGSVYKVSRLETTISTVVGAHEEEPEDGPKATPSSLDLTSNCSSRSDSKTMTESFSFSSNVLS

In order of falling Ki:
1. Cc1ccccc1-c1cc(N(C(=O)C2CC2)C(=O)C2CC2)ncc1N(C)C(=O)C(C)(C)c1cc(C(F)(F)F)cc(C(F)(F)F)c1 [Example 16, Cyclopropanecarboxylic acid (5-{[2-(3,5-bis-trifluoromethyl-phenyl)-2-methyl-propionyl]-methyl-amino}-4-o-tolyl-pyridin-2-yl)-cyclopropanecarbonyl-amide]  3.16 nM
2. Cc1noc(-c2cc(-c3ccccc3C)c(C(=O)N(C)Cc3cc(C(F)(F)F)cc(C(F)(F)F)c3)cn2)n1 [Example 62, N-(3,5-Bis-trifluoromethyl-benzyl)-N-methyl-6-(3-methyl-[1,2,4]oxadiazol-5-yl)-4-o-tolyl-nicotinamide]  3.02 nM
3. C#Cc1cc(-c2ccccc2C)c(N(C)C(=O)C(C)(C)c2cc(C(F)(F)F)cc(C(F)(F)F)c2)cn1 [Example 66, 2-(3,5-Bis-trifluoromethyl-phenyl)-N-(6-ethynyl-4-o-tolyl-pyridin-3-yl)-N-methyl-isobutyramide]  2.69 nM
4. Cc1ccccc1-c1cc([S+]([O-])c2ccccn2)ncc1C(=O)N(C)Cc1cc(C(F)(F)F)cc(C(F)(F)F)c1 (racemic) [Example 99, (RS)-N-(3,5-Bis-trifluoromethyl-benzyl)-N-methyl-6-(pyridine-2-sulfinyl)-4-o-tolyl-nicotinamide]  2.63 nM
5. Cc1ccccc1-c1cc(Cl)ncc1N(C)C(=O)C(C)(C)c1cc(C(F)(F)F)cc(C(F)(F)F)c1 [Example 26, 2-(3,5-Bis-trifluoromethyl-phenyl)-N-(6-chloro-4-o-tolyl-pyridin-3-yl)-N-methyl-isobutyramide]  2.24 nM
6. CC(=O)c1ccc(-c2cc(-c3ccccc3C)c(C(=O)N(C)Cc3cc(C(F)(F)F)cc(C(F)(F)F)c3)cn2)s1 [Example 38, 6-(5-Acetyl-thiophen-2-yl)-N-(3,5-bis-trifluoromethyl-benzyl)-N-methyl-4-o-tolyl-nicotinamide]  2.14 nM
7. Cc1ccccc1-c1cc(OCCCO)ncc1C(=O)N(C)Cc1cc(C(F)(F)F)cc(C(F)(F)F)c1 [Example 113, N-(3,5-Bis-trifluoromethyl-benzyl)-6-(3-hydroxy-propoxy)-N-methyl-4-o-tolyl-nicotinamide]  1.66 nM
8. Cc1ccccc1-c1cc(NC(=O)CO)ncc1N(C)C(=O)C(C)(C)c1cc(C(F)(F)F)cc(C(F)(F)F)c1 [Example 13, 2-(3,5-Bis-trifluoromethyl-phenyl)-N-[6-(2-hydroxy-acetylamino)-4-o-tolyl-pyridin-3-yl]-N-methyl-isobutyramide]  1.62 nM
9. Cc1ccccc1-c1cc(C2=CCNCC2)ncc1C(=O)N(C)Cc1cc(C(F)(F)F)cc(C(F)(F)F)c1 [Example 42, 4-o-Tolyl-1′,2′,3′,6′-tetrahydro-[2,4′]bipyridinyl-5-carboxylic acid (3,5-bis-trifluoromethyl-benzyl)-methyl-amide]  0.832 nM
10. Cc1ccccc1-c1cc(N(O)CCO)ncc1N(C)C(=O)C(C)(C)c1cc(C(F)(F)F)cc(C(F)(F)F)c1 [Example 8, 2-(3,5-Bis-trifluoromethyl-phenyl)-N-{6-[hydroxy-(2-hydroxy-ethyl)-amino]-4-o-tolyl-pyridin-3-yl}-N-methyl-isobutyramide]  0.513 nM
